Source: patent US6897219B2, “Heteroaryl diazacycloalkanes, their preparation and use” (priority 1997, dated 2005)
Where two headings read alike, the source gives them in different places.

Assays:
[1] = target: nAChR formed by the α7 subunit isoform (Rattus norvegicus, UniProt Q05941); experiment: biochemical; format: binding
[2] = target: nAChRs comprised of α4 and β2 subunits (Rattus norvegicus, UniProt P09483+P12390); experiment: In vitro inhibition of 3H-cytisine binding
Description: The predominant subtype with high affinity for nicotine is comprised of α4 and β2 subunits. nAChRs of the latter type can selectively be labelled by the nicotine agonist ^3H-cytisine.
Tissue Preparation: Preparations are performed at 0-4° C. unless otherwise indicated. […] The homogenate is centrifuged at 27,000×g for 10 min. The supernatant is discarded and the pellet is resuspended in fresh buffer and centrifuged a second time. The final pellet is resuspended in fresh buffer (35 ml per g of original tissue) and used for binding assays.
Assay: Aliquots of 500 μl homogenate are added to 25 μl of test solution and 25 μl of ^3H-cytisine (1 nM, final concentration), mixed and incubated for 90 min at 2° C. Non-specific binding is determined using (−)-nicotine (100 μM, final concentration). After incubation the samples are added 5 ml of ice-cold buffer and poured directly onto Whatman GF/C glass fibre filters under suction and immediately washed with 2×5 ml ice-cold buffer. The amount of radioactivity on the filters is determined by conventional liquid scintillation counting. Specific binding is total binding minus non-specific binding.

[3] = target: T1, neuronal nicotinic receptors (α4β2 subtype high affinity site) (Rattus norvegicus, UniProt P09483+P12390); experiment: In vitro inhibition of 3H-epibatidin binding
T1 construct: The forebrain (÷cerebellum) from a male Wistar rat (150-250 g) is homogenized; from tissue; host or cells: rat forebrain (without cerebellum) membrane homogenate
T1 sequence (P09483 31-630): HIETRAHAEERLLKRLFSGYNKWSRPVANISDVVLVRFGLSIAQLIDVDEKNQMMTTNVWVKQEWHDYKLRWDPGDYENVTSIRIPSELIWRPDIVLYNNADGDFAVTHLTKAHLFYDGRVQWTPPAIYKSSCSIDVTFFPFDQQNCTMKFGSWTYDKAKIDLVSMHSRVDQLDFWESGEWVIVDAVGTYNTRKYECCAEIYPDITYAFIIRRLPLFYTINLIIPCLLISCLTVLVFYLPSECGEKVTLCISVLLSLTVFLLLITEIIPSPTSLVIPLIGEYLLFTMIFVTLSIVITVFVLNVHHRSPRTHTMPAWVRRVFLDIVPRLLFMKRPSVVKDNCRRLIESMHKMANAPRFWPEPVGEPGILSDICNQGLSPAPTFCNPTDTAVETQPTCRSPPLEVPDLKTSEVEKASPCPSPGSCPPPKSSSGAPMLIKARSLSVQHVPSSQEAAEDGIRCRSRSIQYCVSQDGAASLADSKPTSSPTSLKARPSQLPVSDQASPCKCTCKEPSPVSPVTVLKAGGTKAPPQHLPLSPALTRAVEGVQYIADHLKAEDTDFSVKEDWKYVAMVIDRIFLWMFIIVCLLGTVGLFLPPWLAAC
T1 sequence (P12390 25-500): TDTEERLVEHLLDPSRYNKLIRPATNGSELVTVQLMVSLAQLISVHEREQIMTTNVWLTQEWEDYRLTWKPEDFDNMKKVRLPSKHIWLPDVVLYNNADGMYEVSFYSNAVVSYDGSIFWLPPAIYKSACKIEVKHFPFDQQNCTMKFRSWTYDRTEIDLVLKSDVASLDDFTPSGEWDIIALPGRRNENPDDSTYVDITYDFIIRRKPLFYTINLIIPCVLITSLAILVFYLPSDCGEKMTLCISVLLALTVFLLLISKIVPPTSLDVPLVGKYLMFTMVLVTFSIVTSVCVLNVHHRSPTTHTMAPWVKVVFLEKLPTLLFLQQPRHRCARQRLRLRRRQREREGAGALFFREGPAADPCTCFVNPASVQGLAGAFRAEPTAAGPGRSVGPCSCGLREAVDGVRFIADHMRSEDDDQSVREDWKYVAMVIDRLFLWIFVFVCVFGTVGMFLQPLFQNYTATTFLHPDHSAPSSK
Description: The high affinity binding site for ^3H-epibatidin is most certainly binding to the α4β2 subtype of nicotinic receptors. The identity of the low affinity site is still unknown; does it represent a second nicotinic receptor or a second site in the same receptor.
Tissue preparation: Preparations are performed at 0-4° C. unless otherwise indicated. The forebrain (÷cerebellum) from a male Wistar rat (150-250 g) is homogenized for 10-20 sec in 20 ml Tris, HCl (50 mM, pH 7.4) using an Ultra-Turrax homogenizer. The tissue suspension is centrifuged at 27,000×g for 10 min. The supernatant is discarded and the pellet is washed three times by centrifugation at 27,000×g for 10 min in 20 ml fresh buffer, and the final pellet is resuspended in fresh buffer (400 ml per g of original tissue) and used for binding assays.
Assay: Aliquots of 2.0 ml homogenate are added to 0.100 ml of test solution and 0.100 ml of ^3H-epibatidin (0.3 nM, final concentration), mixed and incubated for 60 min at room temperature. Non-specific binding is determined using (−)-nicotine (30 μM, final concentration). After incubation the samples are poured directly onto Whatman GF/C glass fibre filters (presoaked in 0.1% PEI for at least 20 min) under suction and immediately washed with 2×5 ml ice-cold buffer. The amount of radioactivity on the filters is determined by conventional liquid scintillation counting. Specific binding is total binding minus non-specific binding.

[4] = rat cerebral cortex homogenate, 1 nM 3H-cytisine, 90 min at 2° C., read-out: 3H-cytisine IC50
[5] = rat forebrain homogenate, 0.3 nM 3H-epibatidin, 60 min at room temperature, read-out: 3H-epibatidin IC50

nAChRs comprised of α4 and β2 subunits, sequence (P09483 31-630): as the sequence (P09483 31-630) above
nAChRs comprised of α4 and β2 subunits, sequence (P12390 25-500): as the sequence (P12390 25-500) above
nAChR formed by the α7 subunit isoform, sequence (Q05941 23-502): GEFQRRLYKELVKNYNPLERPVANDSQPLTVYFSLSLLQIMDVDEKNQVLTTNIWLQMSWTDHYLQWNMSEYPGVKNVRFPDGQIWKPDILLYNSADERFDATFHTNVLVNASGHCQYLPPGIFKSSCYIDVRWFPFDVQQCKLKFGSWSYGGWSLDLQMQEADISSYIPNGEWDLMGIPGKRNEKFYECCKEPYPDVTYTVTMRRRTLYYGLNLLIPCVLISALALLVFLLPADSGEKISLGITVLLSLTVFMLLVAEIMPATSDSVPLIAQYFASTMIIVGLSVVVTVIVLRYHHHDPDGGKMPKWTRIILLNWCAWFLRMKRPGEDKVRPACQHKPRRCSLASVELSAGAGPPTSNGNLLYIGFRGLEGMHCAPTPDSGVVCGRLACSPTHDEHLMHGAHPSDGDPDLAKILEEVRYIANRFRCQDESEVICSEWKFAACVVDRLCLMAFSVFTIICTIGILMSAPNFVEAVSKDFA

Structure (SMILES)	IC50 [1] [nM]	IC50 [2, 4] [nM]	IC50 [3] [nM]	IC50 [2] [nM]	IC50 [3, 5] [nM]	IC50 ([1]; read-out: 3H-α-bungarotoxin IC50) [nM]
c1ccc2nc(N3CCCNCC3)cnc2c1 [Compound 2L, 1-(2-Quinoxalinyl)-homopiperazine]	27000	260	2000	–	–	–
COc1cncc(N2CCCN(C)C2)c1 [Compound 2M, 1-(5-Methoxy-3-pyridyl)-3-methyl-1,3-diazacyclohexane]	> 30000	–	–	90	2700	–
COc1cncc(N2CCNCC2)c1 [Compound 3B, 1-(5-Methoxy-3-pyridyl)-piperazine]	> 30000	800	4500	–	–	–
COc1cncc(N2CCCN(C)CC2)c1 [Compound 3E, 1-(5-Methoxy-3-pyridyl)-4-methyl-homopiperazine]	26000	–	–	94	750	–
CCOc1cncc(N2CCCNCC2)c1 [Compound 3H, 1-(5-Ethoxy-3-pyridyl)-homopiperazine]	20000	–	10	2	–	–
Clc1cncc(N2CCCNCC2)n1 [Compound 3K, 1-(6-Chloro-2-pyrazinyl)-homopiperazine]	5600	–	160	20	–	–
Clc1cncc(N2CCNCC2)c1 [Compound 4B, 1-(5-Chloro-3-pyridyl)-piperazine]	> 30000	310	3000	–	–	–
CCOc1cncc(N2CCCN(C)CC2)c1 [Compound 4E, 1-(5-Ethoxy-3-pyridyl)-4-methyl-homopiperazine]	> 30000	–	–	50	300	–
CN1CCN(c2cncc(Cl)c2)CC1 [Compound 5A, 1-(5-Chloro-3-pyridyl)-4-Methyl-piperazine]	73400	–	650	80	–	–
CN1CCCN(c2cncc(-c3ccccc3)c2)CC1 [Compound 5E, 4-Methyl-1-(5-phenyl-3-pyridyl)-homopiperazine]	16000	200	1500	–	–	–
COc1cc(N2CCCNCC2)cnc1Cl [Compound 5F, 1-(6-Chloro-5-methoxy-3-pyridyl)-homopiperazine]	900	–	5	0.7	–	–
COCCOc1cncc(N2CCCNCC2)c1 [Compound 5H, 1-(5-Methoxyethoxy-3-pyridyl)-homopiperazine]	19000	–	20	2	–	–
Cc1ccc(N2CCCNCC2)nn1 [Compound 5K, 1-(6-Methyl-3-pyridazinyl)-homopiperazine]	4800	–	740	160	–	–
CN1CCN(c2cncc(-c3ccccc3)c2)CC1 [Compound 6A, 4-Methyl-1-(5-phenyl-3-pyridyl)-piperazine]	> 30000	–	–	80	1100	–
COc1cncc(N2CCCNCCC2)c1 [Compound 6B, 1-(5-Methoxy-3-pyridyl)-1,5-diazacyclooctane]	2500	–	3.2	1	–	–
CCCCOc1cncc(N2CCCN(C)CC2)c1 [Compound 6E, 1-(5-Butoxy-3-pyridyl)-4-methyl-homopiperazine]	> 30000	–	–	45	240	–
CC(C)COc1cncc(N2CCCNCC2)c1 [Compound 6H, 1-[5-(2-Methyl-propoxy)-3-pyridyl]-homopiperazine]	> 30000	–	10	2	–	–
FC(F)(F)c1cncc(N2CCCNCC2)c1 [Compound 6K, 1-(5-Triflouromethyl-3-pyridyl)-homopiperazine]	–	9	–	–	40	6400
CCOc1cncc(N2CCN(C)CC2)c1 [Compound 7A, 1-(5-Ethoxy-3-pyridyl)-4-methyl-piperazine]	> 30000	–	90	6	–	–
Clc1ccc(N2CCCNCCC2)nn1 [Compound 7B, 1-(6-Chloro-3-pyridazinyl)-1,5-diazacyclooctane]	460	–	–	30	150	–
